# Values of other authors, collected in publication PMC7485629 (Biochemistry, 2019).
# Like-named read-outs stand apart in the source and are kept apart here.
# System: N-terminus of PD-L1
# Details: crystal structure
Compound,interaction with N-terminus of PD-L1 (ref [66]),interaction with N-terminus of PD-L1 (ref [21])
Cc1c(COc2cc(F)c(CNC[C@@H](O)CC(=O)O)cc2F)cccc1-c1ccc2c(c1)OCCO2 [BMS-200],hydrogen bond with Thr20,
COc1nc(OCc2cccc(-c3ccccc3)c2C)ccc1CNCCNC(C)=O [BMS-202],,water-mediated interaction with the backbone carbonyl of Phe19
